Nine compounds from PubChem BioAssay (NCI) can be followed below.

Molecules are shown by their SMILES. “And” between values parts separate entries of the source, which are not always exact repeats. Equal values may be shown once.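 Values below derive from 48-hour exposures of cells grown in 96-well plates, with endpoints linearly interpolated between the two concentrations bracketing the appropriate inhibition level. The concentration for 50% growth inhibition is given as GI50. TGI: total growth inhibition.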 Where only a bound is given, the exact number is not on record here.

Among the test systems are HCC-2998 colon; HT29 colon; K-562 leukemia; NCI-H226 lung; NCI-H460 lung; OVCAR-5 ovarian; OVCAR-8 ovarian; SF-268 CNS; SK-OV-3 ovarian; SNB-19 CNS.
Common to all, as to assay: inhibition of tumour cell growth, NCI panel, 48 h

`Cc1cccc2c1C/C(=C1\CCc3c(C)cccc31)C2=O`: the TGI in the assay with HCC-2998 colon, with HT29 colon, in the assay with K-562 leukemia, in the assay with NCI-H226 lung, in the assay on NCI-H460 lung and in the assay with OVCAR-5 ovarian was greater than 100 µM in each case. Also, the TGI in the assay with OVCAR-8 ovarian, in the assay with SF-268 CNS, in the assay with SK-OV-3 ovarian and with SNB-19 CNS was greater than 100 µM throughout.
For the compound `N#CC1=C(N)Oc2c(sc3c(F)cccc23)C1c1ccc(F)cc1` (centres undefined), the GI50 was 1.62 µM with HCC-2998 colon; 1.62 µM with HT29 colon; 0.354 µM in the assay with K-562 leukemia; 1.71 µM in the assay on NCI-H226 lung; 0.415 µM in the assay with NCI-H460 lung; 2.95 µM in the assay with OVCAR-5 ovarian. The GI50 was 1.61 µM with OVCAR-8 ovarian, 1.13 µM with SF-268 CNS, 1.61 µM in the assay with SK-OV-3 ovarian and 0.585 µM with SNB-19 CNS. The TGI in the assay with HCC-2998 colon was 8.58 µM; in the assay on HT29 colon it was 12.5 µM; with K-562 leukemia, 18.4 µM; with NCI-H226 lung, 15.8 µM; in the assay with NCI-H460 lung, 7.77 µM; in the assay on OVCAR-5 ovarian, 14.6 µM. Besides, the TGI in the assay on OVCAR-8 ovarian was 22.5 µM; in the assay with SF-268 CNS, 15.3 µM; with SK-OV-3 ovarian, 19.7 µM; with SNB-19 CNS, 15 µM.
On to `CS(=O)(=O)Nc1cc(-c2ccc3ncnc(Nc4ccc5c(cnn5Cc5ccccc5F)c4)c3c2)cnc1Cl`, for which the GI50 was 2.2 µM with HCC-2998 colon; 1.6 µM with HT29 colon; 2.27 µM in the assay with K-562 leukemia; 1.74 µM in the assay with NCI-H226 lung; 2.1 µM in the assay on NCI-H460 lung; 2.22 µM in the assay on OVCAR-5 ovarian. Moreover, the GI50 with OVCAR-8 ovarian is 2.72 µM; with SF-268 CNS it was 1.31 µM; in the assay on SK-OV-3 ovarian it was 0.845 µM; in the assay on SNB-19 CNS, 1.77 µM. Moreover, the TGI in the assay with HCC-2998 colon is 8.46 µM; in the assay on HT29 colon it was greater than 47.3 µM; with K-562 leukemia, greater than 100 µM; in the assay on NCI-H226 lung, 11.3 µM; in the assay on NCI-H460 lung, 58 µM; in the assay with OVCAR-5 ovarian, greater than 100 µM. For the same compound, the TGI was greater than 100 µM in the assay with OVCAR-8 ovarian, 9.18 µM in the assay on SF-268 CNS, 3.96 µM in the assay on SK-OV-3 ovarian and greater than 55.5 µM in the assay on SNB-19 CNS.
In the case of `Oc1ccc(N=Nc2ccc(N=Nc3ccccc3)cc2)cc1`, the GI50 in the assay on HCC-2998 colon was 2.52 µM; with HT29 colon, 2.86 µM; in the assay on K-562 leukemia, 0.615 µM; in the assay on NCI-H226 lung, 18.3 µM; in the assay with NCI-H460 lung, 1.97 µM; with OVCAR-5 ovarian, 4.16 µM. The GI50 is 3.2 µM in the assay with OVCAR-8 ovarian, 1.63 µM in the assay with SF-268 CNS, 3.29 µM in the assay on SK-OV-3 ovarian and 6.39 µM in the assay with SNB-19 CNS. The TGI was 11.1 µM in the assay with HCC-2998 colon; 9.68 µM with HT29 colon; 12.7 µM with K-562 leukemia; 48.2 µM in the assay with NCI-H226 lung; 6.16 µM in the assay on NCI-H460 lung; 17.3 µM with OVCAR-5 ovarian. Moreover, the TGI with OVCAR-8 ovarian was 24.2 µM; in the assay with SF-268 CNS it was 11.8 µM; with SK-OV-3 ovarian, 7.87 µM; in the assay with SNB-19 CNS, 19.7 µM.
For `Clc1ccc(SCCCCCCCCCCSc2ccc(Cl)cc2)cc1`, the TGI with HCC-2998 colon was greater than 64.6 µM; with HT29 colon it was greater than 100 µM; with K-562 leukemia it was greater than 100 µM; in the assay with NCI-H226 lung it was greater than 100 µM; in the assay on NCI-H460 lung, greater than 78.7 µM; in the assay with OVCAR-5 ovarian, greater than 78.3 µM. Also, the TGI in the assay with OVCAR-8 ovarian was greater than 80.1 µM; in the assay with SF-268 CNS, greater than 100 µM; in the assay with SK-OV-3 ovarian, greater than 100 µM; in the assay with SNB-19 CNS it was greater than 100 µM.
In the case of `CN1CCn2c(c(Sc3ccc(C(=O)NO)cc3)c3ccccc32)C1=O`, the GI50 in the assay on HCC-2998 colon is 1.94 µM; in the assay with HT29 colon, 2.92 µM; in the assay with K-562 leukemia, 3.77 µM; in the assay on NCI-H226 lung, 1.78 µM; with NCI-H460 lung it was 2.19 µM; with OVCAR-5 ovarian, 2 µM. The GI50 in the assay on OVCAR-8 ovarian was 1.92 µM; with SF-268 CNS it was 1.92 µM; in the assay with SK-OV-3 ovarian it was 2.11 µM; in the assay on SNB-19 CNS, 2.34 µM. In addition, the TGI with HCC-2998 colon was 3.76 µM; with HT29 colon it was 9.38 µM; in the assay on K-562 leukemia, greater than 100 µM; with NCI-H226 lung, 3.9 µM; in the assay on NCI-H460 lung, 6.58 µM; with OVCAR-5 ovarian it was 5.67 µM. Further, the TGI is 6.71 µM in the assay on OVCAR-8 ovarian, 3.85 µM with SF-268 CNS, 4.8 µM with SK-OV-3 ovarian and 9.99 µM in the assay on SNB-19 CNS.
For the compound `C=C(C)[C@H](O)C(O)CC(C)[C@@H]1CCC23CC12CCC1[C@@]2(C)CCC(OC(C)=O)C(C)(C)C2CC(OC2OC(COC(C)=O)C(O)C(O)C2O)[C@]13C` (some centres undefined), the TGI with HCC-2998 colon stood at 12.4 µM; in the assay on HT29 colon, 8.77 µM; with K-562 leukemia, 10.8 µM; in the assay with NCI-H226 lung it was 11.2 µM; with NCI-H460 lung, 11.5 µM; with OVCAR-5 ovarian, 13.9 µM. Further, the TGI with OVCAR-8 ovarian amounted to 12.8 µM; with SF-268 CNS, 11 µM; in the assay on SK-OV-3 ovarian it was 14.3 µM; in the assay on SNB-19 CNS it was 11.6 µM.
Take `CCOC(=O)C#Cc1c(CC(=O)OCC)nnn1[C@H]1O[C@@H](CO)[C@@H]2OC(C)(C)O[C@@H]21`: the GI50 with HCC-2998 colon is 17.7 µM; in the assay with HT29 colon it was 2.13 µM; in the assay with K-562 leukemia, 3 µM; in the assay with NCI-H226 lung it was 1.79 µM; with NCI-H460 lung, 15 µM; in the assay with OVCAR-5 ovarian, 12.1 µM. For the same compound, the GI50 in the assay with OVCAR-8 ovarian is 5.48 µM; in the assay on SF-268 CNS, 16.3 µM; in the assay with SK-OV-3 ovarian, 37.3 µM; in the assay with SNB-19 CNS, 33.9 µM. Besides, the TGI with HCC-2998 colon came to 31.8 µM; in the assay with HT29 colon it was 4.3 µM; in the assay with K-562 leukemia it was 11.1 µM; in the assay on NCI-H226 lung it was 3.26 µM; with NCI-H460 lung, 33.2 µM; in the assay with OVCAR-5 ovarian, 27.3 µM. Besides, the TGI in the assay with OVCAR-8 ovarian was 18.2 µM; with SF-268 CNS, 34.6 µM; in the assay with SK-OV-3 ovarian, greater than 100 µM; with SNB-19 CNS, greater than 100 µM.
As for `CNc1nc(N(C)C)nc(N(C)C)n1`, the GI50 was > 100 µM and 1520 µM in the assay on HCC-2998 colon; > 100 µM and 518 µM in the assay with HT29 colon; > 100 µM and 831 µM in the assay on K-562 leukemia; > 100 µM and 894 µM in the assay with NCI-H460 lung; > 100 µM and 909 µM in the assay on OVCAR-5 ovarian; > 100 µM and 1780 µM in the assay with OVCAR-8 ovarian. For the same compound, the GI50 was > 100 µM and 2680 µM in the assay on SF-268 CNS; > 100 µM and 1390 µM in the assay on SK-OV-3 ovarian; > 100 µM and 1210 µM with SNB-19 CNS. Also, the TGI in the assay on HCC-2998 colon was > 100 µM and 3590 µM; with HT29 colon, > 100 µM and 3650 µM; with K-562 leukemia, > 100 µM and 3230 µM; with NCI-H226 lung it was 2530 µM; with NCI-H460 lung, > 100 µM and 3000 µM; in the assay on OVCAR-5 ovarian it was > 100 µM and 3960 µM. For the same compound, the TGI was > 100 µM and 2950 µM in the assay on OVCAR-8 ovarian; > 100 µM and 6220 µM with SF-268 CNS; > 100 µM and 3640 µM in the assay on SK-OV-3 ovarian; > 100 µM and 3780 µM with SNB-19 CNS.
